Data on one compound can be found in patent US20060153894A1, “Multi-compartment delivery system” (priority 2004, published 2006).

In the assay the test system is TNF-α secretion from LPS-stimulated PBMC. The assay is described as follows: TNF-α secretion from LPS-stimulated PBMC with p38 inhibitor loaded in the outer compartment (ELISA). The format is cell-based, human. The conditions noted are these: outer compartments loaded with 10.99 ng, 109.9 ng or 1099 ng, 1×10^6 PBMC on inner compartment, LPS 10 ng/ml overnight. How it is done: Outer compartments were made from a composite matrix similar to the one prepared in Example 3. The compartments were loaded with three different amounts (10.99 ng, 109.9 ng, or 1099 ng) of p38 kinase inhibitor (JNJ 3026582, also known as RWJ 67657). The chemical structure of this compound (4-[4-(4-fluorophenyl)-1-(3-phenylpropyl)-5-44-pyridinyl)-1H-imidazol-2-yl]-3-butyn-1-ol) has been previously documented (Wadsworth et al., J. Pharm. Exp. Ther 291:680-687, 1999).
The inner compartments were prepared from a non-woven Vicryl® fibrous matrix fabricated as described in Example 2. Mononuclear cells were freshly isolated from human peripheral blood, counted and adjusted to a final cell number in RPMI-1640 (Invitrogen Life Technologies, Carlsbad, Calif.) with 1% fetal bovine serum (FBS, HyClone, Logan, UT). A total of 1×10^6 cells in a final volume of 50ul were seeded onto the inner compartments.
The two compartments were combined and pre-cultured for 1 hour in a 24-well plate with 0.5 ml culture medium. A stimulus of LPS (lipopolysaccharide) (10 ng/ml; Sigma, St. Louis, Mo.) was added to each well and incubated overnight at 37° C., 5%CO2. Supernatant from each well was collected and analyzed for TNF-α content using a standard commercial ELISA kit (R&D Systems, Minneapolis, Minn.). […]
For orientation: In an ELISA, binding on a coated surface is turned into a signal by an enzyme label.

As to `OCCC#Cc1nc(-c2ccc(F)cc2)c(-c2ccncc2)n1CCCc1ccccc1` [RWJ 67657], the “inhibition of TNF-α secretion” value was “dose dependent inhibition”. Further, the “inhibition of TNF-α secretion” value (listed as p38 inhibitor) is “inhibited in a dose-dependent manner”.
